From patent US11945787B2, “Substituted imidazoles for preventing and/or treating cell or tissue necrosis” (Ela Pharma Ltd, priority 2015, dated 2024)
Where a SMILES comes first, the peptide text is derived from it. The star is where a group is joined. MeOSuc = COC(=O)CCC(=O)*; CHN2 = [N-]=[N+]=C*; CH2Cl = ClC*

What was measured:
PC12 cells = assay: KCN-induced necrosis of PC12 cells, LDH release; assay type: cell-based, rat; conditions: for inhibition at 0.01 µM / inhibition at 0.1 µM / inhibition at 1 µM / inhibition at 0.0001 µM / inhibition at 0.001 µM: Rattus norvegicus, PC-12, 5 h, KCN, PC12, LDH release (Table 5); for inhibition at 0.01 µM: read-out: % protection At 10 nM; for inhibition at 0.1 µM: read-out: % protection at 0.1 μM; for inhibition at 1 µM: read-out: % protection at 1 μM; for KCN-induced necrotic cell death assessed by LDH release: PC12, KCN 5 hours, FIGS. 6, 7A-B; for inhibition at 0.0001 µM: read-out: % protection at 0.1 nM; for inhibition at 0.001 µM: read-out: % protection at 1 nM
Procedure: The rat pheochromocytoma PC12 cell line was propagated in DMEM medium (Beit Haemek, Israel), supplemented with 5% heat-inactivated calf serum, 10% heat-inactivated horse serum, 2 mM L-glutamine, 100 U/ml penicillin and 100 μg/ml streptomycin. PC12 cells in logarithmic phase were seeded at a concentration of 1.2×10^5/well in 96-well plates and incubated overnight.
Thereafter, the cells were washed twice and maintained in RPMI-1640 (U-937cells) and DMEM (PC-12 cells) glucose-free medium, supplemented with 2 mM pyruvate and 10% dialyzed FCS for one hour. Then cells were treated with or without KCN (Merck, Germany) at the indicated concentrations for 7 hours (U-937 cells), or for 5 hours (PC12 cells).
Elastase inhibitors II (MeOSuc-AAPA-CMK) and elastase inhibitor III (MeOSuc-AAPV-CMK) were purchased from Calbiochem-Novabiochem, USA. Compound Gly-Phe diazomethylketone was purchased from MP Biomedicals, USA. All the compounds disclosed in Table 1 hereinabove were purchased from ChemDiv, San Diego, CA. The compounds were dissolved in DMSO and were administered 30 min before addition of the cell death inducer. The final concentration of DMSO, added to all samples, was 0.1%, which had no effect by itself siRNA and cell transfection
The amount of LDH released from lysed cells is a sensitive measure of cell death. Necrotic cell death was measured in 96-well plates using Promega CytoTox 96 LDH assay kit. LDH content from the cells lysed in 0.1% Triton X-100 for 10 min was used as an index of total LDH. The LDH released in culture medium was used as an index of necrotic cell death and the percentage from total LDH was calculated. The protection by the inhibitor was calculated based on comparing percentage of LDH release in the presence and in the absence of the inhibitor. The inhibitors were also added to totals, blanks and controls. Absorbance at 490 nm was measured by ELISA reader (BioTec).
These compounds were tested for their ability to inhibit necrosis induced by KCN in PC12 cells. The necrotic mode of cell death in this system was validated as previously described. PC12 cells were challenged with KCN as described above. The protective results of the compounds against KCN-induced necrosis assessed using LDH release method are shown below in Table 5. The IC50 values of these inhibitors is in the range of tens to single nanomolar.

elastase-like activity = assay: Elastase-like activity in lysates of KCN-treated U-937 cells (MAAPV substrate); assay type: biochemical, human
[1] = system: C57BL/6J mice, closed head trauma; assay: Closed head injury (traumatic brain injury) in mice; assay type: in vivo, mouse
Procedure: The closed head injury method was used to determine the effect of the elastase inhibitor on the development of brain necrosis and on the neurological status assessed using the neurological severity score (NSS). NSS test was performed 1 hour after trauma. During NSS test, various reflexes, ability to move, beam balance, beam walk and other behavior parameters like seeking and exiting from a cycle were monitored. Development of necrosis was measured by assessing necrotic space in brain slices stained with 2,3,5-triphenyl-2H-tetrazolium chloride (TTC).
C57BL/6J mice weighing 40+4 g (mean±SD) were used in the study. A weight-drop device was used to deliver a shock to the scull resulting in a controlled cerebral injury. Impact was delivered by a silicone-coated 5 mm metal tip extruding from a platform that falls down a frame. This model of cranial injury has been used in previous studies [Feldman Z et al., J Neurosurg (1995) 83:1060-1066; Shapira Y et al., J Neurosurg Anesthesiol (1995) 7:17-25].). All animal procedures and care techniques were approved by the Ben-Gurion University of the Negev Committee for the Ethical Care and Use of Animals in Research.
Mice were prepared for surgery by anesthetization with isoflurane and allowed to breathe spontaneously. Maintenance of adequate anesthesia for the experimental procedure was confirmed by loss of corneal reflexes. Once the corneal reflexes were abolished, a midline scalp incision was made and the scalp and underlying muscles were moved laterally. Closed head trauma (CHT) was delivered to the skull over the frontal portion of the left cerebral hemisphere. 1 minute after the trauma 100 μg of elastase inhibitor II or III in its vehicle (DMSO solution), were injected intracerebraspinaly by direct delivery into the cisterna magna. The vehicle itself was previously found to have no effect.
In addition to the wild type C57BL/6J mice, neutrophil elastase knockout mice strain B6.129X1-Elane were also examined. All procedures were approved by the Ethics Committee of Ben-Gurion University of Negev.

SMILES	inhibition at 0.01 µM (PC12 cells; 10 nM)	inhibition at 0.1 µM (PC12 cells)	inhibition at 1 µM (PC12 cells; 1 μM)	also measured
CCOC(=O)C1=C(C)N(CC(=O)NCc2ccc(C)cc2)c2ncnn2C1c1ccccc1 (centres unmarked) [D529-0049, ethyl 5-methyl-4-(2-((4-methylbenzyl)amino)-2-oxoethyl)-7-phenyl-4,7-dihydro-[1,2,4]triazolo[1,5-a]pyrimidine-6-carboxylate]	33%	42%	51%	–
[N-]=[N+]=CC(=O)[C@H](Cc1ccccc1)NC(=O)CN [Gly-Phe-DMK, Gly-Phe-diazomethylketone, reference compound] (H-Gly-Phe-CHN2)	–	–	–	KCN-induced necrotic cell death assessed by LDH release (PC12 cells): inhibited cell necrosis
O=C1C(NS(=O)(=O)c2ccc(Cl)s2)CCN1c1ccccc1 (centres unmarked) [P316-0028, 5-chloro-N-(2-oxo-1-phenylpyrrolidin-3-yl)thiophene-2-sulfonamide]	43%	49%	53%	–
O=C(c1ccccc1Cl)N1CCN=C1N1CCCCC1 [M059-0326, (2-chlorophenyl)-[2-(1-piperidyl)-4,5-dihydroimidazol-1-yl] methanone]	–	–	–	protection of cells at 10 μM (PC12 cells; 10 μM, KCN-induced necrosis (Table 2)): 10 μM confers protection 56% of cells
COC(=O)CCC(=O)N[C@@H](C)C(=O)N[C@@H](C)C(=O)N1CCC[C@H]1C(=O)N[C@H](C(=O)CCl)C(C)C [EI III, MeOSuc-AAPV-CMK] (MeOSuc-AAPV-CH2Cl)	–	–	–	KCN-induced necrotic cell death assessed by LDH release (PC12 cells): inhibited in a dose dependent manner; inhibition of necrosis induced by KCN at high concentrations (PC12 cells; up to 300 μM): significantly inhibited necrosis; effect of inhibitor by itself on PC-12 cells (PC12 cells; up to 300 μM, without KCN): inactive by themselves; inhibition of necrosis-induced elastase-like activity (elastase-like activity; 100 μM): completely inhibited; effect on elastase activity of control cells (elastase-like activity; 100 μM, control cells): slight effect; IC50 (elastase-like activity; lysates after 10 mM KCN 30 min, FIG. 3, read-out: IC50 of inhibition of necrosis-induced elastase-like activity): 2740 nM; induction of elastase-like enzymatic activity in intact cells (elastase-like activity; treatment of intact cells): abrogated the induction; neurological severity score (NSS) ([1]; 100 μg into cisterna magna 1 min after trauma, 1 hour post injury): significantly reduce neurological damage; space of necrotic tissue, TTC staining ([1]; 100 μg into cisterna magna, untreated traumatized 50%): 25 % of the damaged hemisphere
O=C(CC1CCCC1)N1CCN=C1N1CCCC1 [M059-0055, 2-cyclopentyl-1-(2-(pyrrolidin-1-yl)-4,5-dihydro-1H-imidazol-1-yl)ethanone]	–	–	68%	–
O=C(N1CCN(c2nnc3ccc(Cl)cn23)CC1)C1(c2ccccc2)CC1 [T404-2346, (4-(6-chloro-[1,2,4]triazolo[4,3-a]pyridin-3-yl)piperazin-1-yl)(1-phenylcyclopropyl)methanone]	–	42%	–	–
CCOC(=O)[C@H]1O[C@@H]1C(=O)N[C@@H](CC(C)C)C(=O)NCCC(C)C [E-64d]	–	–	–	effect on elastase-like proteolytic activity (elastase-like activity; lysates after 10 mM KCN 30 min, data not shown): no effect
c1ccc(-c2noc(CC3CCCCC3)n2)nc1 [4953-1443, 5-(cyclohexylmethyl)-3-(pyridin-2-yl)-1,2,4-oxadiazole]	–	–	51%	–
CC(C)N1CCN(C(=O)CN2C(=O)C3CCCN3C(=O)c3cc(F)ccc32)CC1 (centres unmarked) [M284-0488, 7-fluoro-10-(2-(4-isopropylpiperazin-1-yl)-2-oxoethyl)-2,3-dihydro-1H-benzo[e]pyrrolo[1,2-a][1,4]diazepine-5,11(10H,11aH)-dione]	82%	72%	80%	inhibition at 0.0001 µM (PC12 cells; 0.1 nM): 35%; inhibition at 0.001 µM (PC12 cells; 1 nM): 51%
COc1cc(C(=O)n2nc(C)cc2C)cc(OC)c1OC [3346-3249, (3,5-dimethyl-1H-pyrazol-1-yl)(3,4,5-trimethoxyphenyl)methanone]	–	–	52%	–
Nc1ncc(S(=O)(=O)Nc2ccc(F)cc2F)cn1 [G830-0845, 2-amino-N-(2,4-difluorophenyl)pyrimidine-5-sulfonamide]	–	–	54%	–
O=S1(=O)N=C(NCCN2CCCC2)C(NCCN2CCCC2)=N1 [Z087-0195, 3,4-bis((2-(pyrrolidin-1-yl)ethyl)amino)-1,2,5-thiadiazole 1,1-dioxide]	25%	80%	98.5%	inhibition at 0.0001 µM (PC12 cells; 0.1 nM): 9%; inhibition at 0.001 µM (PC12 cells; 1 nM): 21%
CNC(=O)c1n[nH]c2c1CCCCCC2 [Z632-6109, N-methyl-4,5,6,7,8,9-hexahydro-1H-cycloocta[c]pyrazole-3-carboxamide]	40%	70%	81%	inhibition at 0.0001 µM (PC12 cells; 0.1 nM): 26%; inhibition at 0.001 µM (PC12 cells; 1 nM): 25%
O=C(NCCNC(=O)c1nc(Cn2cc(Cl)cn2)no1)c1cccc(F)c1 [8019-5381, 3-((4-chloro-1H-pyrazol-1-yl)methyl)-N-(2-(3-fluorobenzamido)ethyl)-1,2,4-oxadiazole-5-carboxamide]	32%	49%	56%	–
O=C(CN1C(=O)C2CCCN2C(=O)c2ccc(F)cc21)Nc1ccc(F)c(F)c1 (centres unmarked) [M284-0942, N-(3,4-difluorophenyl)-2-(8-fluoro-5,11-dioxo-2,3,11,11a-tetrahydro-1H-benzo[e]pyrrolo[1,2-a][1,4]diazepin-10(5H)-yl)acetamide]	–	52%	–	–
CC(C)C(=O)Nc1ccc(Oc2ccc(NC(=O)C(C)C)cc2)cc1 [Y200-4083, N,N'-(oxybis(4,1-phenylene))bis(2-methylpropanamide)]	–	–	–	% protection at indicated concentration 0.1 nM (PC12 cells; 0.1 nM, KCN-induced necrosis (Table 2)): 11%; % protection at indicated concentration 1 nM (PC12 cells; 1 nM, KCN-induced necrosis (Table 2)): 25%; % protection at indicated concentration 10 nM (PC12 cells; 10 nM, KCN-induced necrosis (Table 2)): 32%; % protection at indicated concentration 100 nM (PC12 cells; 100 nM, KCN-induced necrosis (Table 2)): 49%; % protection at indicated concentration 1 μM (PC12 cells; 1 μM, KCN-induced necrosis (Table 2)): 74%
CCn1c2ccccc2c2nnc(NCc3ccccn3)nc21 [E205-0066, 5-ethyl-N-(pyridin-2-ylmethyl)-5H-[1,2,4]triazino[5,6-b]indol-3-amine]	18%	32%	58%	–
CCN1CCN(C2=NCCN2C(=O)C2CCCC2)CC1 [M059-1012, cyclopentyl(2-(4-ethylpiperazin-1-yl)-4,5-dihydro-1H-imidazol-1-yl)methanone]	–	51%	–	–
O=C(c1ccco1)N1CCN=C1N1CCCC1 [M059-0032, furan-2-yl(2-(pyrrolidin-1-yl)-4,5-dihydro-1H-imidazol-1-yl)methanone]	37%	59%	72%	inhibition at 0.0001 µM (PC12 cells; 0.1 nM): 7%; inhibition at 0.001 µM (PC12 cells; 1 nM): 25%
